This note sets out measurements from ChEMBL document CHEMBL1649094, “First Selective CYP11B1 Inhibitors for the Treatment of Cortisol-Dependent Diseases” (ACS Med Chem Lett, 2011).

For one data set, the target named is T1, CYP19 (aromatase) (Homo sapiens, UniProt P11511).
T1 sequence (P11511 whole entry): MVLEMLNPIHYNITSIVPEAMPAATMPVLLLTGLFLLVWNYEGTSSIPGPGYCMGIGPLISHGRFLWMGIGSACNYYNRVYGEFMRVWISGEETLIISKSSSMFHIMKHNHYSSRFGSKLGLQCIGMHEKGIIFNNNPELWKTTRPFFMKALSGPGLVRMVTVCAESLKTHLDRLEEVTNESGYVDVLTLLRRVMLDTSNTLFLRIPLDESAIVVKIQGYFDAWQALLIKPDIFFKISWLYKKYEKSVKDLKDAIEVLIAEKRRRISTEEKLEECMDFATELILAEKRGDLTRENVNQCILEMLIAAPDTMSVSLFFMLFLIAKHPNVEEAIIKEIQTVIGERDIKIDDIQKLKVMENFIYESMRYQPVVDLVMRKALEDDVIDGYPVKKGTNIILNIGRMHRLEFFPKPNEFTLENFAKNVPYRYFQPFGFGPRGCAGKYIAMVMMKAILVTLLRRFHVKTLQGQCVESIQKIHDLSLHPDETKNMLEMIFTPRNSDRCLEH
Kind of data set: (§1) Inhibition of human placental microsomes CYP19 at 500 nM using androstenedione substrate. The following applies: human placental microsomes, probe androstenedione.

The target in data set [1] is T2, Cytochrome P450 11B1, mitochondrial (Homo sapiens, UniProt P15538).
T2 sequence (P15538 whole entry): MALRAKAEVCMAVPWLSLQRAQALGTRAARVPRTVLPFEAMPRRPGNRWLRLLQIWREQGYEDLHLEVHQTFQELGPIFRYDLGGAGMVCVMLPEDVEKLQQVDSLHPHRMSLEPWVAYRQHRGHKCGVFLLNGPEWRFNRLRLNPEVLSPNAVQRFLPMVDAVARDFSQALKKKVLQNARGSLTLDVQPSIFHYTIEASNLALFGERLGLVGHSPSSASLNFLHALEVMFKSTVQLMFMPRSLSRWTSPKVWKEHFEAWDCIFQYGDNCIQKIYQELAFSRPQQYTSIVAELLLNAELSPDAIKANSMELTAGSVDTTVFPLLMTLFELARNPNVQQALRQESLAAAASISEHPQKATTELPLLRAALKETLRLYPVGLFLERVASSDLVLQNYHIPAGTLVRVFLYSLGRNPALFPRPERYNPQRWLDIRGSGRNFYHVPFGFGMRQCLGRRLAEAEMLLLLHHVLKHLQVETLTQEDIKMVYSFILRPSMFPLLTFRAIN
The experiment in a line: Inhibition of human CYP11B1 expressed in hamster V79MZ cells using 11-deoxycorticosterone substrate. In kind it is cell-based.

The target in data set [2] is T3, Cytochrome P450 11B2, mitochondrial (Homo sapiens, UniProt P19099).
T3 sequence (P19099 whole entry): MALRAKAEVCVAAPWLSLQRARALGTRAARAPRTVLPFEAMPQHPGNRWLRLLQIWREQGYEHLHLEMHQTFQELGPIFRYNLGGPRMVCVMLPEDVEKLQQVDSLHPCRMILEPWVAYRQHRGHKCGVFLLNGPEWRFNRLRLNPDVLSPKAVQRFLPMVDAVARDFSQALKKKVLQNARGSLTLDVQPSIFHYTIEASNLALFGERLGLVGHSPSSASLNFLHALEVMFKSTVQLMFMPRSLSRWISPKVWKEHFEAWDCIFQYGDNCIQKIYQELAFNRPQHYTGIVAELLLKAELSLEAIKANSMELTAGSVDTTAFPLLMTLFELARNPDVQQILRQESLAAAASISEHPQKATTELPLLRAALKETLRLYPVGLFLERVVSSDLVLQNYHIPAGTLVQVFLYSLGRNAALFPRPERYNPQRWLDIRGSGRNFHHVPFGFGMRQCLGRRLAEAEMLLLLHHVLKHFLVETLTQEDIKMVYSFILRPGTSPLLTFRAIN
The experiment in a line: Inhibition of human CYP11B2 expressed in hamster V79MZ cells using 11-deoxycorticosterone substrate. In kind it is cell-based.

For data set [3], the target named is T4, Steroid 17-alpha-hydroxylase/17,20 lyase (Homo sapiens, UniProt P05093).
T4 sequence (P05093 whole entry): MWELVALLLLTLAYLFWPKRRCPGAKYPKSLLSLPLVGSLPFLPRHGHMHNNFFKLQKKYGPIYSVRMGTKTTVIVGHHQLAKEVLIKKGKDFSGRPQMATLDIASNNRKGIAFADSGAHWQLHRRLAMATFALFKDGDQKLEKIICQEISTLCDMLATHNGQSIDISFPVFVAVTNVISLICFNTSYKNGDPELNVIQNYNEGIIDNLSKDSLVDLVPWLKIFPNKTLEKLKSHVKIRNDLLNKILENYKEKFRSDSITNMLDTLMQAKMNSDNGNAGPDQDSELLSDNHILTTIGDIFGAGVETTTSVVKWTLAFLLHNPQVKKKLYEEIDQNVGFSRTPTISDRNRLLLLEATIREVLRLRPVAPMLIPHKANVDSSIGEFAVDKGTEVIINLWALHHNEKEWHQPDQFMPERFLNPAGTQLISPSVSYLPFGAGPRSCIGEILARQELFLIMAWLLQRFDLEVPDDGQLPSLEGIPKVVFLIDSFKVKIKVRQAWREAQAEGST
Kind of data set: Inhibition of human recombinant CYP17 expressed in Escherichia coli at 2 uM using progesterone substrate. The following applies: 2 µM.

The species named for another data set is Homo sapiens. The experiment in a line: Selectivity index, ratio of IC50 for human CYP11B2 to IC50 for human CYP11B1.
The target in the next data set is T5, Aromatase (Homo sapiens, UniProt P11511).
T5 sequence (P11511 whole entry): T1 sequence (P11511 whole entry)
The data set is described as §1. The conditions noted are these: 0.5 µM.

A word on the inhibition: it is how much of the control response was suppressed. In general, IC50 refers to the midpoint of a concentration-inhibition curve. The low end stands for inhibition by little substance, the high end for a need for much substance. At CYP19 (aromatase), `Cc1ccccc1Cn1ccnc1` yielded an inhibition at 0.5 µM of 12%. Further, the IC50 in data set [1] was found to be 61 nM; in data set [2] it was 62 nM. In addition, the “inhibition (INH)” value in data set [3] is reported as “Not Active”. Moreover, in the data set listed under Homo sapiens, the Ratio IC50 is 1.

Turning to `c1ccc(-c2ccc(Cn3cnc4ccccc43)cc2)cc1`, the “inhibition (INH)” value (against Aromatase; in data set [3]) was “Not Active” in each case. Moreover, the figures for the IC50 in data set [1] and in data set [2] were 197 nM and 1900 nM, respectively. Further, in the data set filed under Homo sapiens, the Ratio IC50 worked out at 10.

Turning to `c1ccc(C(Cn2cnc3ccccc32)(c2ccccc2)c2ccccc2)cc1`, the “inhibition (INH)” value (against Aromatase; in data set [3]) was “Not Active” each time. Further, the IC50 in data set [1] and in data set [2] was over 1000 nM throughout.

As to `c1ccc(-c2cccc(Cn3cnc4ccccc43)c2)cc1`, the “inhibition (INH)” value (against Aromatase; in data set [3]) was “Not Active” each time. Besides, the half-inhibitory concentration (IC50) in data set [1] turned out to be 369 nM; in data set [2], 2230 nM. The Ratio IC50 in the data set filed under Homo sapiens amounted to 6.

As to `Cc1c(C)c(C)c(Cn2cnc3ccccc32)c(C)c1C`, the “inhibition (INH)” value (against Aromatase; in data set [3]) was “Not Active” in each case. Further, the IC50 in data set [1] and in data set [2] was over 1000 nM throughout.

In the case of `c1ccc(C(Cn2ccnc2)(c2ccccc2)c2ccccc2)cc1`, the inhibition at 0.5 µM against CYP19 (aromatase) was found to be 38%. Moreover, the IC50 in data set [1] amounted to 4 nM; in data set [2], 8 nM. The “inhibition (INH)” value in data set [3] is reported as “Not Active”. In addition, the Ratio IC50 in the data set listed under Homo sapiens was found to be 2.

At CYP19 (aromatase), `c1ccc(-c2ccccc2Cn2ccnc2)cc1` returned an inhibition at 0.5 µM of 38%. The values for the IC50 in data set [1] and in data set [2] were 15 nM and 39 nM, respectively. Besides, the “inhibition (INH)” value in data set [3] is “Not Active”. Besides, the Ratio IC50 in the data set filed under Homo sapiens came out at 2.6.

As to `Clc1ccc(Cn2ccnc2)cc1`, the “inhibition (INH)” value (on Aromatase; in data set [3]) was “Not Active” throughout. Further, the IC50 was 140 nM in data set [1] and 46 nM in data set [2]. Further, the Ratio IC50 in the data set listed under Homo sapiens turned out to be 0.3.

For `Cc1cc(C)cc(Cn2cnc3ccccc32)c1`, the “inhibition (INH)” value (against Aromatase; in data set [3]) was “Not Active” in each case. Moreover, the IC50 is 188 nM in data set [1] and 632 nM in data set [2]. Moreover, the Ratio IC50 in the data set listed under Homo sapiens was determined as 3.4.

Turning to `c1ccc(C(c2ccccc2)(c2ccccc2)n2cnc3ccccc32)cc1`, the “inhibition (INH)” value (against Aromatase; in data set [3]) was “Not Active” each time. The IC50 in data set [1] and in data set [2] was over 1000 nM each time.

On to `Clc1ccc(Cn2cnc3ccccc32)cc1`, for which the “inhibition (INH)” value (at Aromatase; in data set [3]) was “Not Active” in each case. For the same molecule, the IC50 is 635 nM in data set [1] and 107 nM in data set [2]. Besides, the Ratio IC50 in the data set listed under Homo sapiens came to 0.2.

As to `c1ccc(Cn2cnc3ccccc32)cc1`, the “inhibition (INH)” value (at Aromatase; in data set [3]) was “Not Active” each time. Besides, the half-maximal inhibitory concentration (IC50) in data set [1] came out at 246 nM; in data set [2], 865 nM. The Ratio IC50 in the data set listed under Homo sapiens turned out to be 3.5.

For `CCOC(=O)c1cncn1[C@H](C)c1ccccc1` [ETOMIDATE], the “inhibition (INH)” value (against Aromatase; in data set [3]) was “Not Active” each time. 0.1 nM corresponded to half-maximal inhibition in data set [2] (IC50). Also, the Ratio IC50 in the data set filed under Homo sapiens came out at 0.5.

`c1ccc2c(c1)ncn2CC12CC3CC(CC(C3)C1)C2`: testing at 0.5 µM on CYP19 (aromatase) gave an inhibition of 12%. In addition, in data set [1], it took 75 nM to reach half-maximal inhibition (IC50). The “inhibition (INH)” value in data set [3] is reported as “Not Active”.

As for `c1ccc(C(CCn2cnc3ccccc32)(c2ccccc2)c2ccccc2)cc1`, the “inhibition (INH)” value (at Aromatase; in data set [3]) was “Not Active” throughout. The IC50 in data set [1] and in data set [2] was over 1000 nM each time.

For `c1ccc(-c2csc(Cn3ccnc3)c2)cc1`, at CYP19 (aromatase), the inhibition at 0.5 µM amounted to 72%. Besides, the IC50 in data set [1] stood at 19 nM; in data set [2] it was 277 nM. Besides, in the data set listed under Homo sapiens, the Ratio IC50 worked out at 15.

For `c1ccc(Cn2ccnc2)cc1`, the “inhibition (INH)” value (on Aromatase; in data set [3]) was “Not Active” each time. Further, the IC50 in data set [1] stood at 135 nM; in data set [2], 456 nM. Further, in the data set listed under Homo sapiens, the Ratio IC50 was found to be 3.4.

At CYP19 (aromatase), `c1cn(CC23CC4CC(CC(C4)C2)C3)cn1` came in with an inhibition at 0.5 µM of 12%. Besides, the IC50 in data set [1] was found to be 5 nM; in data set [2], 30 nM. Moreover, the Ratio IC50 in the data set listed under Homo sapiens is 5.9.

For the molecule `Cc1ccc(Cn2ccnc2)cc1`, the “inhibition (INH)” value (at Aromatase; in data set [3]) was “Not Active” each time. For the same molecule, the IC50 in data set [1] is 258 nM; in data set [2], 320 nM. Also, the Ratio IC50 in the data set listed under Homo sapiens was 1.2.

For `Cc1cc(C)c(Cn2cnc3ccccc32)c(C)c1`, the “inhibition (INH)” value (on Aromatase; in data set [3]) was “Not Active” throughout. In addition, the IC50 in data set [1] and in data set [2] was over 1000 nM throughout.

For `Cc1ccc(Cn2cnc3ccccc32)cc1`, the “inhibition (INH)” value (at Aromatase; in data set [3]) was “Not Active” in each case. The IC50 in data set [1] was 500 nM; in data set [2], 520 nM. Also, the Ratio IC50 in the data set listed under Homo sapiens was determined as 1.

As for `c1ccc(-c2ccccc2Cn2cnc3ccccc32)cc1`, the “inhibition (INH)” value (against Aromatase; in data set [3]) was “Not Active” throughout. In addition, the IC50 in data set [1] and in data set [2] was over 1000 nM in each case.

Regarding `Cc1cc(C)c(Cn2ccnc2)c(C)c1`, the “inhibition (INH)” value (against Aromatase; in data set [3]) was “Not Active” throughout. Moreover, the IC50 in data set [1] was found to be 24 nM; in data set [2], 30 nM. In addition, the Ratio IC50 in the data set filed under Homo sapiens is 1.3.

Turning to `Cc1ccccc1Cn1cnc2ccccc21`, the “inhibition (INH)” value (against Aromatase; in data set [3]) was “Not Active” throughout. Besides, the IC50 in data set [1] turned out to be 779 nM; in data set [2] it was 262 nM. Further, in the data set filed under Homo sapiens, the Ratio IC50 stood at 0.3.

Turning to `Cc1cccc(Cn2cnc3ccccc32)c1`, the “inhibition (INH)” value (against Aromatase; in data set [3]) was “Not Active” each time. For the same molecule, the figures for the IC50 in data set [1] and in data set [2] were 194 nM and 309 nM, respectively. In addition, the Ratio IC50 in the data set filed under Homo sapiens was 1.6.

For `c1ccc(-c2cc(Cn3cnc4ccccc43)cc(-c3ccccc3)c2)cc1`, the “inhibition (INH)” value (at Aromatase; in data set [3]) was “Not Active” each time. The IC50 in data set [1] and in data set [2] was over 1000 nM each time.

Turning to `CC(C)(C(=O)c1cccnc1)c1cccnc1` [METYRAPONE], the “inhibition (INH)” value (on Aromatase; in data set [3]) was “Not Active” throughout.

`c1ccc(-c2ccc(Cn3ccnc3)cn2)cc1`: 0.5 µM produced 0% inhibition against CYP19 (aromatase). Further, the Ratio IC50 in the data set listed under Homo sapiens was 18.
